ChEMBL document CHEMBL1201861, “Genomics of Drug Sensitity in Cancer screening data, Wellcome Trust Sanger Institute”
Several values for one entry are separate records, joined by “and”; a condition that tells them apart may be missing. Equal entries are not always repeated.

Experiments:
D-566MG = experiment: cells; type: functional, cell-based; settings: Homo sapiens
C-4-II = experiment: SANGER: Inhibition of human C-4-II cell growth in a cell viability assay.; type: functional, cell-based
NCI-H1734 = experiment: cells; type: functional, cell-based; settings: Homo sapiens;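 also: growth inhibition of human NCI-H1734 cells, read out with a cell viability assay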
Description: SANGER: Inhibition of human NCI-H1734 cell growth in a cell viability assay.

HCC1143 = experiment: cells; type: functional, cell-based; settings: Homo sapiens;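 also: growth inhibition of human HCC1143 cells, read out with a cell viability assay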
Description: SANGER: Inhibition of human HCC1143 cell growth in a cell viability assay.

MFE-296 = experiment: SANGER: Inhibition of human MFE-296 cell growth in a cell viability assay.; type: functional, cell-based
CHP-126 = experiment: cells; type: functional, cell-based; settings: Homo sapiens
Description: SANGER: Inhibition of human CHP-126 cell growth in a cell viability assay.

NB1 = experiment: cells; type: functional, cell-based; settings: Homo sapiens;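 also: reduction of NB1 cell proliferation, read out with a viability assay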
Description: SANGER: Inhibition of human NB1 cell growth in a cell viability assay.

BOKU = experiment: cells; type: functional, cell-based; settings: Homo sapiens;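 also: growth inhibition of the human BOKU cell line, read out by a cell viability assay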
Description: SANGER: Inhibition of human BOKU cell growth in a cell viability assay.

NCI-H522 = experiment: cells; type: functional, cell-based, Homo sapiens;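 also: cell viability assay measuring growth inhibition of human NCI-H522 cells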
Description: SANGER: Inhibition of human NCI-H522 cell growth in a cell viability assay.

COLO 205 = experiment: cells; type: functional, cell-based; settings: Homo sapiens
Description: SANGER: Inhibition of human COLO-205 cell growth in a cell viability assay.

KNS-62 = experiment: cells; type: functional, cell-based; settings: Homo sapiens;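 also: inhibition of cell growth, read out with a cell viability assay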
Description: SANGER: Inhibition of human KNS-62 cell growth in a cell viability assay.

RPMI 8402 = experiment: SANGER: Inhibition of human RPMI-8402 cell growth in a cell viability assay.; type: functional, cell-based
SNU-475 = experiment: cells; type: functional, cell-based; settings: Homo sapiens
Description: SANGER: Inhibition of human SNU-475 cell growth in a cell viability assay.

EB2 = experiment: cells; type: functional, cell-based; settings: Homo sapiens;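 also: growth inhibition of EB2 cells, read out with a cell viability assay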
Description: SANGER: Inhibition of human EB2 cell growth in a cell viability assay.

Calu-1 = experiment: SANGER: Inhibition of human Calu-1 cell growth in a cell viability assay.; type: functional, cell-based
LC-1F = experiment: cells; type: functional, cell-based; settings: Homo sapiens;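 also: growth inhibition of human LC-1F cells, read out with a cell viability assay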
Description: SANGER: Inhibition of human LC-1F cell growth in a cell viability assay.

TT = experiment: cells; type: functional, cell-based; settings: Homo sapiens
Description: SANGER: Inhibition of human TT cell growth in a cell viability assay.

OC-314 = experiment: cells; type: functional, cell-based; settings: Homo sapiens
Description: SANGER: Inhibition of human OC-314 cell growth in a cell viability assay.

SR = experiment: cells; type: functional, cell-based; settings: Homo sapiens
Description: SANGER: Inhibition of human SR cell growth in a cell viability assay.

SIG-M5 = experiment: cells; type: functional, cell-based; settings: Homo sapiens;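 also: cell viability assay read-out, measuring how strongly growth of cultured human SIG-M5 cells is inhibited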
Description: SANGER: Inhibition of human SIG-M5 cell growth in a cell viability assay.

DV-90 = experiment: cells; type: functional, cell-based; settings: Homo sapiens;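 also: Read-out is a viability assay, with IC50 reflecting the drop in DV-90 cell growth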
Description: SANGER: Inhibition of human DV-90 cell growth in a cell viability assay.

SCC-3 = experiment: cells; type: functional, cell-based; settings: Homo sapiens;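 also: cell viability assay measuring inhibition of SCC-3 cell growth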
Description: SANGER: Inhibition of human SCC-3 cell growth in a cell viability assay.

SNG-M = experiment: cells; type: functional, cell-based; settings: Homo sapiens
Description: SANGER: Inhibition of human SNG-M cell growth in a cell viability assay.

MES-SA = experiment: cells; type: functional, cell-based, Homo sapiens;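 also: growth inhibition of human MES-SA cells, read out with a cell viability assay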
Description: SANGER: Inhibition of human MES-SA cell growth in a cell viability assay.

NCCIT = experiment: SANGER: Inhibition of human NCCIT cell growth in a cell viability assay.; type: functional, cell-based
NCI-H187 = experiment: cells; type: functional, cell-based; settings: Homo sapiens;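 also: growth inhibition of NCI-H187 cells, read out as cell viability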
Description: SANGER: Inhibition of human NCI-H187 cell growth in a cell viability assay.

NCI-H1573 = experiment: cells; type: functional, cell-based; settings: Homo sapiens;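 also: growth inhibition of NCI-H1573 cells, read out with a cell viability assay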
Description: SANGER: Inhibition of human NCI-H1573 cell growth in a cell viability assay.

OPM-2 = experiment: cells; type: functional, cell-based; settings: Homo sapiens;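 also: growth of OPM-2 cells measured with a viability assay, IC50 for suppression of proliferation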
Description: SANGER: Inhibition of human OPM-2 cell growth in a cell viability assay.

RT-4 = experiment: SANGER: Inhibition of human RT4 cell growth in a cell viability assay.; type: functional, cell-based
SK-CO-1 = experiment: cells; type: functional, cell-based; settings: Homo sapiens;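 also: growth inhibition of SK-CO-1 cells, determined by a viability readout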
Description: SANGER: Inhibition of human SK-CO-1 cell growth in a cell viability assay.

P31-FUJ = experiment: cells; type: functional, cell-based; settings: Homo sapiens;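 also: growth inhibition of P31-FUJ cells, read out with a viability assay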
Description: SANGER: Inhibition of human P31-FUJ cell growth in a cell viability assay.

LC4-1 = experiment: cells; type: functional, cell-based; settings: Homo sapiens;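 also: growth inhibition of LC4-1 cells, read out with a cell viability assay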
Description: SANGER: Inhibition of human LC4-1 cell growth in a cell viability assay.

NCI-H322M = experiment: cells; type: functional, cell-based; settings: Homo sapiens;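 also: cell viability assay measuring inhibition of growth of human NCI-H322M cells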
Description: SANGER: Inhibition of human NCI-H322M cell growth in a cell viability assay.

RL95-2 = experiment: cells; type: functional, cell-based; settings: Homo sapiens;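 also: RL95-2 growth inhibition determined through a cell viability readout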
Description: SANGER: Inhibition of human RL95-2 cell growth in a cell viability assay.

THP-1 = experiment: cells; type: functional, cell-based; settings: Homo sapiens;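 also: growth inhibition of THP-1 cells, read out via a cell viability assay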
Description: SANGER: Inhibition of human THP-1 cell growth in a cell viability assay.

H-EMC-SS = experiment: cells; type: functional, cell-based; settings: Homo sapiens
Description: SANGER: Inhibition of human H-EMC-SS cell growth in a cell viability assay.

Caov-3 cell line = experiment: cells; type: functional, cell-based; settings: Homo sapiens;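 also: cell growth inhibition read out by a viability assay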
Description: SANGER: Inhibition of human Caov-3 cell growth in a cell viability assay.

HSC-4 = experiment: cells; type: functional, cell-based, Homo sapiens;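 also: growth inhibition of human HSC-4 cells, read out with a cell viability assay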
Description: SANGER: Inhibition of human HSC-4 cell growth in a cell viability assay.

ARH-77 = experiment: cells; type: functional, cell-based; settings: Homo sapiens;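 also: growth inhibition of ARH-77 cells, read out by a cell viability assay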
Description: SANGER: Inhibition of human ARH-77 cell growth in a cell viability assay.

PLC-PRF-5 = experiment: cells; type: functional, cell-based; settings: Homo sapiens;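 also: growth inhibition of human PLC-PRF-5 cells, read out with a viability assay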
Description: SANGER: Inhibition of human PLC-PRF-5 cell growth in a cell viability assay.

TUR = experiment: cells; type: functional, cell-based; settings: Homo sapiens;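 also: growth inhibition of human TUR cells, read out with a cell viability assay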
Description: SANGER: Inhibition of human TUR cell growth in a cell viability assay.

NCI-H2171 = experiment: cells; type: functional, cell-based; settings: Homo sapiens;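 also: growth inhibition of human NCI-H2171 cells, read out by a cell viability assay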
Description: SANGER: Inhibition of human NCI-H2171 cell growth in a cell viability assay.

NCI-H1618 = experiment: cells; type: functional, cell-based; settings: Homo sapiens;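 also: growth inhibition of human NCI-H1618 cells, measured by a cell viability assay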
Description: SANGER: Inhibition of human NCI-H1618 cell growth in a cell viability assay.

NCI-H2196 = experiment: cells; type: functional, cell-based; settings: Homo sapiens;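 also: cell viability assay used as the readout of growth inhibition in NCI-H2196 cells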
Description: SANGER: Inhibition of human NCI-H2196 cell growth in a cell viability assay.

NCI-H2227 = experiment: cells; type: functional, cell-based; settings: Homo sapiens;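 also: growth inhibition of the human cell line, read out with a cell viability assay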
Description: SANGER: Inhibition of human NCI-H2227 cell growth in a cell viability assay.

NCI-H1963 = experiment: cells; type: functional, cell-based; settings: Homo sapiens;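 also: cell growth inhibition of the human line, determined with a cell viability assay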
Description: SANGER: Inhibition of human NCI-H1963 cell growth in a cell viability assay.

NCI-H716 = experiment: cells; type: functional, cell-based; settings: Homo sapiens;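 also: growth inhibition of human NCI-H716 cells, measured by a cell viability assay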
Description: SANGER: Inhibition of human NCI-H716 cell growth in a cell viability assay.

EW-7 = experiment: SANGER: Inhibition of human EW-7 cell growth in a cell viability assay.; type: functional, cell-based
NCI-H2009 = experiment: cells; type: functional, cell-based, Homo sapiens;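 also: cell viability assay measuring inhibition of NCI-H2009 cell growth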
Description: SANGER: Inhibition of human NCI-H2009 cell growth in a cell viability assay.

MDA-MB-468 = experiment: cells; type: functional, cell-based; settings: Homo sapiens
Description: SANGER: Inhibition of human MDA-MB-468 cell growth in a cell viability assay.

NCI-H719 = experiment: cells; type: functional, cell-based; settings: Homo sapiens;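 also: growth inhibition of the cultured cell line, read out with a viability assay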
Description: SANGER: Inhibition of human NCI-H719 cell growth in a cell viability assay.

MONO-MAC-6 = experiment: cells; type: functional, cell-based; settings: Homo sapiens;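 also: cell viability assay measuring growth inhibition of human MONO-MAC-6 cells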
Description: SANGER: Inhibition of human MONO-MAC-6 cell growth in a cell viability assay.

ZR-75-30 = experiment: cells; type: functional, cell-based; settings: Homo sapiens;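 also: growth inhibition of ZR-75-30 cells, measured with a cell viability readout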
Description: SANGER: Inhibition of human ZR-75-30 cell growth in a cell viability assay.

LU-135 = experiment: cells; type: functional, cell-based; settings: Homo sapiens
Description: SANGER: Inhibition of human LU-135 cell growth in a cell viability assay.

BALL-1 = experiment: cells; type: functional, cell-based; settings: Homo sapiens;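 also: growth inhibition of BALL-1 cells, read out with a cell viability assay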
Description: SANGER: Inhibition of human BALL-1 cell growth in a cell viability assay.

CHP-134 = experiment: SANGER: Inhibition of human CHP-134 cell growth in a cell viability assay.; type: functional, cell-based
TI-73 = experiment: cells; type: functional, cell-based; settings: Homo sapiens;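 also: cell viability assay measuring how much compounds suppress growth of the cultured cell line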
Description: SANGER: Inhibition of human TI-73 cell growth in a cell viability assay.

NBsusSR = experiment: cells; type: functional, cell-based; settings: Homo sapiens;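 also: growth inhibition of the human cell line, read out with a cell viability assay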
Description: SANGER: Inhibition of human NBsusSR cell growth in a cell viability assay.

Cc1cc([C@@H](C)Nc2ccccc2C(=O)O)c2nc(N3CCOCC3)cc(=O)n2c1 [AZD-6482]
IC50 (D-566MG): 3.07 µM
IC50 (C-4-II): > 5.12 µM
IC50 (NCI-H1734): > 5.12 µM
IC50 (HCC1143): > 5.12 µM
IC50 (MFE-296): 1.57 µM
IC50 (CHP-126): > 5.12 µM
IC50 (NB1): > 5.12 µM
IC50 (BOKU): > 5.12 µM
IC50 (NCI-H522; nci-h522): > 5.12 µM
IC50 (COLO 205): > 5.12 µM
IC50 (KNS-62): > 5.12 µM
IC50 (RPMI 8402): > 5.12 µM
IC50 (SNU-475): > 5.12 µM
IC50 (EB2): 1.75 µM
IC50 (Calu-1): > 5.12 µM
IC50 (LC-1F): > 5.12 µM
IC50 (TT): > 5.12 µM
IC50 (OC-314): > 5.12 µM
IC50 (SR): > 5.12 µM
IC50 (SIG-M5): > 5.12 µM
IC50 (DV-90): > 5.12 µM
IC50 (SCC-3): > 5.12 µM
IC50 (SNG-M): > 5.12 µM
IC50 (MES-SA; mes-sa): > 5.12 µM and 1.11 µM
IC50 (NCCIT): > 5.12 µM
IC50 (NCI-H187): > 5.12 µM
IC50 (NCI-H1573): > 5.12 µM
IC50 (OPM-2): > 5.12 µM
IC50 (RT-4; rt-4): > 5.12 µM
IC50 (SK-CO-1): > 5.12 µM
IC50 (P31-FUJ): > 5.12 µM
IC50 (LC4-1): > 5.12 µM
IC50 (NCI-H322M): > 5.12 µM
IC50 (RL95-2): > 5.12 µM
IC50 (THP-1): > 5.12 µM
IC50 (H-EMC-SS): > 5.12 µM
IC50 (Caov-3 cell line): > 5.12 µM
IC50 (HSC-4; hsc-4): > 5.12 µM
IC50 (ARH-77): > 5.12 µM
IC50 (PLC-PRF-5): > 5.12 µM
IC50 (TUR): > 5.12 µM
IC50 (NCI-H2171): > 5.12 µM
IC50 (NCI-H1618): > 5.12 µM
IC50 (NCI-H2196): > 5.12 µM
IC50 (NCI-H2227): > 5.12 µM
IC50 (NCI-H1963): > 5.12 µM
IC50 (NCI-H716): > 5.12 µM
IC50 (EW-7; ew-7): 0.864 µM and 3.11 µM
IC50 (NCI-H2009; nci-h2009): 5.01 µM and > 5.12 µM
IC50 (MDA-MB-468): 1.54 µM
IC50 (NCI-H719): > 5.12 µM
IC50 (MONO-MAC-6): > 5.12 µM

COc1ccc(C2=N[C@@H](c3ccc(Cl)cc3)[C@@H](c3ccc(Cl)cc3)N2C(=O)N2CCNC(=O)C2)c(OC(C)C)c1 [NUTLIN-3]
IC50 (ZR-75-30): > 8 µM
IC50 (D-566MG): > 8 µM
IC50 (LU-135): > 8 µM
IC50 (NCI-H522; Homo sapiens, NCI-H522): > 8 µM
IC50 (KNS-62): > 8 µM
IC50 (OC-314): > 8 µM
IC50 (NCI-H1573): > 8 µM
IC50 (BALL-1): > 8 µM
IC50 (CHP-134): 2.94 µM
IC50 (H-EMC-SS): 6.39 µM
IC50 (TI-73): > 8 µM
IC50 (NBsusSR): > 8 µM

O=C1N=C(NCc2cccs2)S/C1=C\c1ccc2ncccc2c1
IC50 (ZR-75-30): > 5 µM
IC50 (D-566MG): > 5 µM
IC50 (LU-135): > 5 µM
IC50 (NCI-H522; Homo sapiens, NCI-H522): > 5 µM
IC50 (KNS-62): > 5 µM
IC50 (OC-314): > 5 µM
IC50 (NCI-H1573): > 5 µM
IC50 (BALL-1): > 5 µM
IC50 (CHP-134): > 5 µM
IC50 (H-EMC-SS): > 5 µM
IC50 (TI-73): > 5 µM
IC50 (NBsusSR): > 5 µM

O=c1cc(-c2cccc3c2Sc2ccccc2S3)oc(N2CCOCC2)c1 [KU-55933]
IC50 (ZR-75-30): > 10 µM
IC50 (D-566MG): > 10 µM
IC50 (LU-135): > 10 µM
IC50 (NCI-H522; Homo sapiens, NCI-H522): > 10 µM
IC50 (KNS-62): > 10 µM
IC50 (OC-314): > 10 µM
IC50 (NCI-H1573): > 10 µM
IC50 (BALL-1): > 10 µM
IC50 (CHP-134): > 10 µM
IC50 (H-EMC-SS): > 10 µM
IC50 (TI-73): > 10 µM
IC50 (NCI-H2009; Homo sapiens, NCI-H2009): > 10 µM
IC50 (NBsusSR): > 10 µM

Cc1cnc(-c2cnc(NCCNc3ccc(C#N)cn3)nc2-c2ccc(Cl)cc2Cl)[nH]1 [LADUVIGLUSIB]
IC50 (C-4-II): > 2.56 µM
IC50 (NCI-H1734): > 2.56 µM
IC50 (HCC1143): > 2.56 µM
IC50 (MFE-296): > 2.56 µM
IC50 (CHP-126): > 2.56 µM
IC50 (NB1): > 2.56 µM
IC50 (BOKU): > 2.56 µM
IC50 (NCI-H522; Homo sapiens, NCI-H522): > 2.56 µM
IC50 (COLO 205): > 2.56 µM
IC50 (RPMI 8402): > 2.56 µM
IC50 (SNU-475): > 2.56 µM
IC50 (EB2): > 2.56 µM
IC50 (Calu-1): > 2.56 µM
IC50 (LC-1F): > 2.56 µM
IC50 (TT): > 2.56 µM
IC50 (SR): > 2.56 µM
IC50 (SIG-M5): > 2.56 µM
IC50 (DV-90): > 2.56 µM
IC50 (SCC-3): > 2.56 µM
IC50 (SNG-M): > 2.56 µM
IC50 (MES-SA; Homo sapiens, MES-SA): > 2.56 µM
IC50 (NCCIT): > 2.56 µM
IC50 (NCI-H187): > 2.56 µM
IC50 (OPM-2): > 2.56 µM
IC50 (RT-4; Homo sapiens, RT-4): > 2.56 µM
IC50 (SK-CO-1): > 2.56 µM
IC50 (P31-FUJ): > 2.56 µM
IC50 (LC4-1): > 2.56 µM
IC50 (NCI-H322M): > 2.56 µM
IC50 (RL95-2): > 2.56 µM
IC50 (THP-1): > 2.56 µM
IC50 (Caov-3 cell line): > 2.56 µM
IC50 (HSC-4; Homo sapiens, HSC-4): > 2.56 µM
IC50 (ARH-77): > 2.56 µM
IC50 (PLC-PRF-5): > 2.56 µM
IC50 (TUR): > 2.56 µM
IC50 (NCI-H2171): > 2.56 µM
IC50 (NCI-H1618): > 2.56 µM
IC50 (NCI-H2196): > 2.56 µM
IC50 (NCI-H2227): > 2.56 µM
IC50 (NCI-H1963): > 2.56 µM
IC50 (NCI-H716): > 2.56 µM
IC50 (EW-7; Homo sapiens, EW-7): > 2.56 µM
IC50 (NCI-H2009; Homo sapiens, NCI-H2009): > 2.56 µM
IC50 (MDA-MB-468): > 2.56 µM
IC50 (NCI-H719): > 2.56 µM
IC50 (MONO-MAC-6): > 2.56 µM

COc1ccc(-c2ccc3c(N4CCOC[C@@H]4C)nc(N4CCOC[C@@H]4C)nc3n2)cc1CO [AZD-8055]
IC50 (ZR-75-30): > 2 µM
IC50 (D-566MG): 1.07 µM
IC50 (LU-135): > 2 µM
IC50 (NCI-H522; Homo sapiens, NCI-H522): 0.63 µM
IC50 (KNS-62): 0.506 µM
IC50 (OC-314): 1.3 µM
IC50 (NCI-H1573): 0.902 µM
IC50 (BALL-1): > 2 µM
IC50 (CHP-134): 1.38 µM
IC50 (H-EMC-SS): > 2 µM
IC50 (TI-73): 0.457 µM
IC50 (NBsusSR): 0.17 µM

COc1cc(F)c(F)c(Nc2ccc(I)cc2F)c1NS(=O)(=O)C1(CC(O)CO)CC1 (stereo not given)
IC50 (ZR-75-30): > 5 µM
IC50 (D-566MG): 4.27 µM
IC50 (LU-135): > 5 µM
IC50 (NCI-H522; Homo sapiens, NCI-H522): > 5 µM
IC50 (KNS-62): 1.87 µM
IC50 (OC-314): > 5 µM
IC50 (NCI-H1573): > 5 µM
IC50 (BALL-1): > 5 µM
IC50 (CHP-134): > 5 µM
IC50 (H-EMC-SS): 0.917 µM
IC50 (TI-73): 1.83 µM
IC50 (NBsusSR): > 5 µM
